Source: patent US4435404A, “Carbostyril derivatives” (priority 1980, dated 1984)
pIC50: −log10 of the molar value.

Biological target: T1, cyclic AMP phosphodiesterase (Oryctolagus cuniculus, UniProt G1ST54)
T1 construct: the supernatant was collected to use it as a crude enzyme solution; from tissue; host or cells: rabbit platelets (from platelet-rich plasma)
T1 sequence (G1ST54 1-1128): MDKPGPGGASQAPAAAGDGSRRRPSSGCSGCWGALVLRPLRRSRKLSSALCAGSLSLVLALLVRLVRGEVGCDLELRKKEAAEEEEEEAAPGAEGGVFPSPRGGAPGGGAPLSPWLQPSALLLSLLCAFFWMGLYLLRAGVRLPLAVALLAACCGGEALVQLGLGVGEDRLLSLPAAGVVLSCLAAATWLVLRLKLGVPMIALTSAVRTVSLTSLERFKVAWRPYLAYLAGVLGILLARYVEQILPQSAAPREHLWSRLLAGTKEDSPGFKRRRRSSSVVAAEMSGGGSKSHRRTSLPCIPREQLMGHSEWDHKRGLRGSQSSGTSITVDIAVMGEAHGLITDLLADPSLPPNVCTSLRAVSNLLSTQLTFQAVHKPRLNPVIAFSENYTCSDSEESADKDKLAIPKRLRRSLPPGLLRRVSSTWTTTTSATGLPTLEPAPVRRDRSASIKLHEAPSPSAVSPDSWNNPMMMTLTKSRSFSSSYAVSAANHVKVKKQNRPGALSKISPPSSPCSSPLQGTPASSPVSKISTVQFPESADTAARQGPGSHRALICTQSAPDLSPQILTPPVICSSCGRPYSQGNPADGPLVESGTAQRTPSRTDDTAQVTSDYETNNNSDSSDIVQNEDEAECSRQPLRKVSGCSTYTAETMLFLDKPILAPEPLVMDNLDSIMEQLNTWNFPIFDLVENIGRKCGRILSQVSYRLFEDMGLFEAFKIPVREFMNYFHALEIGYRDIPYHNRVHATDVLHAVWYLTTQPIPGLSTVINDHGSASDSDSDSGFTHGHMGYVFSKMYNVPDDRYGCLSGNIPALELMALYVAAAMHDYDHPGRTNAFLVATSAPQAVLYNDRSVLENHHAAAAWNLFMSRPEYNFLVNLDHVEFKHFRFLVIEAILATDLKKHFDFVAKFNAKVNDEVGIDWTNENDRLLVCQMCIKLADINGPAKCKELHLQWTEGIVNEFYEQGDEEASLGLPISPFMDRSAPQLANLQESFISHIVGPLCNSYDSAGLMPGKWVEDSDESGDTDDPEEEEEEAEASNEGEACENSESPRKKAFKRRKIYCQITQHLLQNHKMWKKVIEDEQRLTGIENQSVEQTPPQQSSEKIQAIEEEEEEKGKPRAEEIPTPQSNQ
Assay: Obstructive action against cyclic AMP phosphodiesterase
Type: biochemical
Settings: rabbit platelet enzyme, 30° C., 20 minutes
Procedure: That is, for determining the obstructive activity against cyclic AMP phosphodiesterase, 10 ml of a solution obtained by adding 1 mmol of MgCl2 into 50 mmol of tris-hydrochloric acid buffer with pH 7.4 was added to the platelets obtained by further centrifuging the above-said rabbit PRP at 3,000 r.p.m. for 10 minutes, and the suspended platelets were ground by a Teflon potter type homogenizer. This was followed by two times of freezing and thawing treatment and 300-second fracturing with 200 watt supersonic waves. After additional 60-minute centrifugation with 100,000 G, the supernatant was collected to use it as a crude enzyme solution.
10 Milliliters of this crude buffer solution was added to a 1.5×20 cm DEAE-cellulose column which has previously been buffered with 50 mM of tris-acetate buffer (pH 6.0), followed by washing and elution with 30 ml of 50 mM tris-acetate buffer, and this buffer solution was subjected to linear gradient elution with 0 to 0.5 moles of sodium acetate-tris-acetatebuffer (total amount of elute was 300 ml.). The flow rate was 0.5 ml/min, and 5 ml of each fraction was batched out. […] This fraction was used as cyclic AMP phosphodiesterase.
0.1 Milliliter of an aqueous solution of each test compound of a specified concentration was mixed with 40 mmol of tris-hydrochloric acid buffer (pH 8.0, containing 50 μg of cow serum albumin and 4 mmol of MgCl2) containing predetermined 1.0 μmol of cyclic AMP (tritium cyclic AMP), and 0.2 ml of this mixed solution was used as substrate solution.
0.2 Milliliter of the above-prepared cyclic AMP phosphodiesterase of a predetermined concentration was added to said substrate solution and the mixture was reacted at 30° C. for 20 minutes, producing tritium 5'-AMP from the tritium cyclic AMP.
The reaction system was then immersed in boiling water for 2 minutes to stop the reaction, and then this reaction solution was cooled in ice water and, for converting the produced tritium 5'-AMP into tritium adenosine, the solution was added with 0.05 ml (1 mg/ml) of snake poison as 5'-nucleotidase and reacted at 30° C. for 10 minutes. The whole amount of this reaction solution was then added to a cation exchange resin (AG 500 W×4, 200-400 meshes, manufactured by Bio-Rad Co., column size: 0.5×1.5 cm), and the produced tritium anodesine alone was allowed to combine, washed with 6 ml of distilled water and eluted with 1.5 ml of 3 N-ammonia water. The whole quantity of the elutant was added with 10 ml of a triton-toluene type scintillator and the produced tritium adenosine was measured by a liquid scintillation counter to determine the phosphodiesterase activity.
In this way, the phosphodiesterase activation value (Vs) of the test compounds of the respective concentrations was determined, and the phosphodiesterase obstruction rate (%) was determined from said activation value (Vs) and control value (Vc) (obtained from water not containing any test compound) from the following formula: [formula] Known 1-methyl-3-isobutylxanthine was used as control.

Molecule `O=C(CCCOc1ccc2[nH]c(=O)ccc2c1)N(CCO)C1CCCCC1` [No. 1, 6-{3-[N-(2-hydroxyethyl)-N-cyclohexylaminocarbonyl]propoxy}carbostyril] has a pIC50 of 6.82.
